In this experiment the target is T1, monoacylglycerol lipase (MAGL) (Homo sapiens, UniProt Q99685).
T1 construct: gene MGLL
T1 sequence (Q99685 1-303): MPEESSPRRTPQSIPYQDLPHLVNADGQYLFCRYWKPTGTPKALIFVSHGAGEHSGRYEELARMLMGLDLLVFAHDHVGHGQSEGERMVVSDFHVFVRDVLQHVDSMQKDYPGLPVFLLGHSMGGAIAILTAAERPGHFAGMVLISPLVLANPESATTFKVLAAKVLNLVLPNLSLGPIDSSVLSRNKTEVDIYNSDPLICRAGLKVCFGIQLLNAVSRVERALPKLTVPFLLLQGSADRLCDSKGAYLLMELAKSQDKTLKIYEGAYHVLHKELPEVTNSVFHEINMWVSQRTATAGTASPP
As to the kind of experiment: Cayman Monoacylglycerol Lipase Inhibitor Screening Assay Kit, absorbance at […] nm, […] min preincubation; maximum inhibition about […]. It counts as biochemical.

As usually defined, the IC50 is the point on the concentration scale where inhibition reaches its midpoint. Low values mean higher potency, high ones lower potency.

SMILES strings stand for the structures.

The molecule `CN1c2ccccc2CC1C(=O)N1CCC(C(=O)Nc2cccc(Cl)c2)CC1` (stereo not shown) [M-18C, MAGLZ-18(c)] had a half-maximal inhibitory concentration (IC50) of 663 nM.

The values above are taken from publication PMC10648159, “Novel MAGL Inhibitors Alleviate LPS-Induced Acute Kidney Injury by Inhibiting NLRP3 Inflammatory Vesicles, Modulating Intestinal Flora, Repairing the Intestinal Barrier, and Interfering with Serum Metabolism” (Molecules, 2023).
